Where “and” joins values, the source holds several entries; their conditions need not be identical. Equal values may be shown once.
What was measured:
PRKDC = test: Immunofluorescence of nuclear phosphorylated PRKDC^2609 in primary myocytes; type: cell-based, human; conditions: 100 nM or 500 nM, 1 hour
Description: (§1) Patient biopsy-derived primary myoblasts were seeded to a collagen-I coated plate in primary myoblast medium. Medium was changed every other day until cells reached 80% confluence followed by a switch to primary myotube medium. […] PRKDC (phosphorylated PRKDC^2609), active SRC (phosphorylated SRC^416), and nuclei.

DUX4 [1] = test: FSHD primary patient biopsy myotube immunocytochemistry, DUX4 expression; type: cell-based, human
Description: FIG. 10 provides the workflow for assays performed with patient biopsy-derived muscle. On Day 0, patient myoblasts are passaged in a 96-well dish in primary myoblast medium (Genea BioCells). On Day 2, the medium is changed to […].
17MB026 primary FSHD-affected patient myoblasts (obtained from the University of Rochester FSHD Biorepository) were thawed and cultured as described in Rickard et al., 2015 in primary myoblast medium. Cells (6000 per well) were seeded to a collagen-I coated 96-well plate in 100 μl primary myoblast medium. Medium was changed every other day until cells reached 80% confluence followed by a switch to 100 μL per well primary myotube medium. […] Cells were fixed and analyzed after 2.5 days of myotube formation by immunocytochemistry and high-content imaging for DUX4, H3.X/Y, Myosin Heavy Chain expression and nuclei number. Five or six replicate wells were averaged per condition, […]

SRC = test: Immunofluorescence of nuclear phosphorylated SRC^416 in primary myocytes; type: cell-based, human; conditions: 100 nM or 500 nM, 1 hour
Description: as §1

DUX4 target genes = test: Nanostring panel transcript analysis, DUX4 target genes; type: cell-based, human; conditions: 17MB026 primary myotubes, six-point dose curve 30 nM-3 μM, 3 days
Description: 17MB026 primary FSHD-affected patient myoblasts (obtained from the University of Rochester FSHD Biorepository) were thawed and cultured as described in Rickard et al., 2015 in primary myoblast medium. Cells (4000 per well) were seeded to a collagen-I coated 96-well plate in 100 μL primary myoblast medium. Medium was changed every other day until cells reached 80% confluence followed by a switch to 100 μL per well primary myotube medium. […] Cells were lysed after 3 days of myotube formation using 10 μL of iScript Buffer (Biorad) per well. The resulting lysates were frozen at −30° C. After thaw, 5 μL of each lysate was combined with a custom-designed Nanostring transcript probe and capture codeset. Probes were hybridized to lysates and run cartridge was loaded and run per standard protocol. Normalization and background subtraction were performed using the nSolver 3.0 software using standard conditions DUX4 target gene and myotube marker gene expression values were normalized to a standard set of housekeeping genes. Duplicate wells of each condition were averaged.

[2] = Tissue distribution study, brain and muscle; type: in vivo, CD-1 mice; conditions: mouse; for Uninjected muscle exposure / brain exposure: samples at 1 hour and 24 hours
Description: Intraperitoneal injection, which provides the drug via absorption into the mesenteric blood supply and is thus subject to hepatic first-pass metabolism, was used to approximate oral dosings total of 96 mice were utilized: 3 naive CD-1 male mice and 3 naïve CD-1 female mice were dosed per route of administration per 2 doses plus 3 naive CD-1 male mice and 3 naïve CD-1 female mice were per route of administration per dose for tissue collection. Following administration, blood, brain, and muscle samples were collected as follows; Two blood samples were collected from each mouse at 2 distinct timepoints over 24 bout post-dose to include 0.25, 0.5, 1, 2, 4, 8, and 24 hours. Blood samples were centrifuged to obtain plasma samples. For each time point, duplicate aliquots of plasma were transferred into an appropriately labeled sample tube containing a volume of buffer. The diluted plasma samples were stored at −20° C. for the first 24 hours and then transferred to −80° C. 24 hours of processing. Terminal brain and muscle samples were collected at 1 hour and 24 hours after administration. Tissue samples were temporarily put on dry ice and then stored at −20° C. for the first 24 hours and then transferred to −80° C. 24 hours of collection Plasma, brain and muscle samples were analyzed for test substance quantification using a method based on protein precipitation followed by HPLC-MS/MS analysis within optimized bioanalytical method.
FIG. 31B. […] For IM injected animals, both the injected gastrocnemius muscle and the contralateral (uninjected gastrocnemius)) muscle were collected. […] Concentrations are shown as mean with SD, N=6

[3] = test system: 17MB026 primary FSHD-affected patient myotubes; test: Live cell imaging of % cell confluence through myotube formation; type: cell-based, human; conditions: 17MB026 primary myotubes, six concentrations, four days of myotube formation
Description: 17MB026 primary FSHD-affected patient myoblasts (obtained from the University of Rochester FSHD Biorepository) were thawed and cultured as described in Rickard et al., 2015 in primary myoblast medium. Cells (4000 per well) were seeded to a collagen-I coated 96-well plate in 100 μL primary myoblast medium. Medium was changed every other day until cells reached 80% confluence followed by a switch to 100 μL per well primary myotube medium. […] Cells were imaged in the phase contrast channel every six hours for four days and cell confluence in each image was quantified, Triplicate wells of each condition were averaged.

DUX4 [4] = test: FSHD hESC-SkM immunocytochemistry, DUX4 expression; type: cell-based, human
Description: FIG. 6 provides an example of a screening and culturing workflow for hESC-SkM assays. At Day 0, hESC-derived myoblasts are thawed into a 96-well plate in myoblast medium (Genea BioCells). On Day 2, the medium is replaced with new myoblast medium containing 1.15 μM. Decitabine. […] On Day 7, the myotubes are analyzed. For example, the myotubes may be analyzed for MHC expression or DUX4 expression.
(§2) Genea049 FSHD-affected human Embryonic Stem Cells (hESCs) were differentiated using Genea's myogenic differentiation protocol (Caron et 2015) to the myoblast stage and cryopreserved. Frozen myoblasts were resuscitated and 4500 cells were plated into each well of a 96-well collagen I coated tissue culture plate in myoblast medium. After two days of cell growth medium was changed to 100 μL per well myoblast medium containing 1.15 μM Decitabine. […] Cells were allowed to differentiate to myotubes for four additional days then were fixed and analyzed for quantification of DUX4 expression, Myosin Heavy Chain expression, and nuclei number. Triplicate wells of each condition were averaged.
as §2, with “et al.,” for “et”, “number by high-content imaging.” for “number.”

DUX4 [5] = test: DUX4 expression downregulation by kinase family inhibitors (Table 1); type: cell-based; conditions: at the lowest significant concentration; listed as DCC2036

For CNC(=O)c1cc(Oc2ccc(NC(=O)Nc3cc(C(C)(C)C)nn3-c3ccc4ncccc4c3)c(F)c2)ccn1 [GBC0905, Rebastinib], the “intensity distribution of nuclear phosphorylated PRKDC^2609 (kinase activity)” value (PRKDC) was “significant shift towards lower intensity levels”, the “DUX4 expression, dose curve” value (DUX4 [1]; 17MB026 primary myotubes, 10-point dose curve 2 nM-5 μM, 2.5 days) was “dose-dependent decrease of DUX4 expression” and the IC50 (DUX4 [1]; Homo sapiens, Myotube, 17MB026 primary FSHD patient myotubes, read-out: IC50 value, DUX4-suppressive effect) was ~0.1 µM. The “intensity distribution of nuclear phosphorylated SRC^416 (kinase activity)” value (SRC) was “significant shift towards lower intensity levels”, the “expression of DUX4-activated genes” value (DUX4 target genes) was “dose-dependent decrease of 11 DUX4-activated genes” and the Brain concentration ([2]; 24 hours after IM injection at 10 mg/kg) was “below the Lower Limit of Quantification (LLOQ)”. The Uninjected muscle exposure ([2]; intramuscular administration) was ≤ 157 ng/g, the brain exposure ([2]; intramuscular administration) was ≤ 351 ng/g and the “Exposure of the injected muscle (gastrocnemius)” value ([2]; intramuscular dosing, after 24 hours) was 1441667 ng/g. The Uninjected muscle exposure ([2]; intraperitoneal administration) was “up to 1336 ng/g”, the brain exposure ([2]; intraperitoneal administration) was “up to 441 ng/g” and the “FSHD cell death measured by retained % cell confluence” value [3] was “dose-dependent rescue of FSHD cell death”. For the same molecule, the DUX4 expression (DUX4 [4]; Genea049 hESC-SkM, 100 nM, four days of culture during myotube formation) was “decreased DUX4 expression”, the “DUX4 expression, dose curve” value (DUX4 [4]; Genea049 hESC-SkM, six concentration points 10 nM-3 μM, four days) was “dose-dependent decreased DUX4 expression” and the IC50 (DUX4 [4]; Homo sapiens, Genea049 hESC-SkM dose curve, read-out: estimated IC50 value, DUX4-suppressive effect) was ~0.1 µM. For the same molecule, the “Quantitation % of DUX4 reduction @the lowest significant [C]” value (DUX4 [5]) was 66.39% and 51.75% and 79.76% and 82.94%.
